Experimental data published in patent publication US11198713B2, “Agents modulating beta-catenin functions and methods thereof” (FOG PHARMACEUTICALS, INC., priority 2017, dated 2021).
Converted amounts (≈) assume the structure as drawn. Where two headings read alike, the source gives them in different places. Numbered stars: 1 amine (or outer) side, 2 acyl side, 3 side chain; on linkers, the order of the positions; unused ones are H or OH. Bridge positions count the residues as written; N and C are the ends. Square brackets hold non-standard residues; d marks the D form. Primed or numbered codes have the meaning given here. Ends that are not written are not given here. Peptide text beside a SMILES is read from it. MB = Monomer B = PyrS, Alloc-pyrrolidine stapling residue (allyl carbamate on pyrrolidine N); dαMeDab(Me) = CN(CC[C@@](C)(N[*:1])C(=O)[*:2])[*:3]; X1 = O=C([C@]1(N[*:1])CCN([*:3])C1)[*:2]; X2 = O=C(OCC=CCOC(=O)[*:2])[*:1]; R8 = C=CCCCCCC[C@@](C)(N)C(=O)O; S5 = C=CCCC[C@](C)(N)C(=O)O; PEG1′ = not defined here

Tests used:
[1] = biological target: T1, full-length beta-catenin (Axin site) (Homo sapiens, UniProt P35222); assay: Competition fluorescence polarization assay (Axin site probe); type: binding; details: competition fluorescence polarization, Table 2; read-out: in vitro FP EC50
T1 construct: 15 nM full-length beta-catenin, 20 nM FITC labeled peptide in buffer
T1 sequence (P35222 1-781): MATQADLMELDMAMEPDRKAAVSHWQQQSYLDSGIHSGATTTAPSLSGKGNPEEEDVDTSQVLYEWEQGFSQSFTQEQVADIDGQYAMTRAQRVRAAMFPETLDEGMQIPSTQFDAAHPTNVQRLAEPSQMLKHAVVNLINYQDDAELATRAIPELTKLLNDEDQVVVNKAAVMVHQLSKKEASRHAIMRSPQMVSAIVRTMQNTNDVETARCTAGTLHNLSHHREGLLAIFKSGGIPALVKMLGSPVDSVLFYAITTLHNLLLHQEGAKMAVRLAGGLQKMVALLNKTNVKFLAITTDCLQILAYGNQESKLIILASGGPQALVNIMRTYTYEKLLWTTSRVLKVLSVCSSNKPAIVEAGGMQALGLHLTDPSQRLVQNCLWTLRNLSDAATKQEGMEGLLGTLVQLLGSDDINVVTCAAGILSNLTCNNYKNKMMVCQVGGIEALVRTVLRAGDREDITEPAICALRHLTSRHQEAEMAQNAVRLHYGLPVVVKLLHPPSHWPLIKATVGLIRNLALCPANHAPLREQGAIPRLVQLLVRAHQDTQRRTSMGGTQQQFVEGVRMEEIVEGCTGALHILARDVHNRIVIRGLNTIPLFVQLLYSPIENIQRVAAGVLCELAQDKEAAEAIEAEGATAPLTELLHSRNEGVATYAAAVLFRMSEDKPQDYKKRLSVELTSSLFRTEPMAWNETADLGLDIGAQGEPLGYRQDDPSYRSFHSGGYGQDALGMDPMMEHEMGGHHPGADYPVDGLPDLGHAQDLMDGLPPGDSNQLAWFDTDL
Procedure, shortened: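 Competition FP: 15 nM full-length β-catenin pre-incubated 5 min with 20 nM FITC-labelled stapled Axin-site peptide, then titrated peptide added (3-fold series from 5 μM) for 15 min in the dark. Buffer 50 mM Tris pH 8.0, 250 mM NaCl, 2% glycerol, 0.5 mM EDTA; duplicate reads.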

[2] = biological target: T2, biotinylated beta-catenin (Homo sapiens, UniProt P35222); assay: Surface Plasmon Resonance (Biacore); type: binding
T2 sequence (P35222 1-781): T1 sequence (P35222 1-781)
Protocol: Additionally or alternatively, binding to beta-catenin may be measured by Surface Plasmon Resonance. In an exemplary assay, approximately 6 nmol dried peptide diluted in buffer (50 mM Tris pH 8.0, 300 mM NaCl, 2% glycerol, 0.5 mM TCEP, 0.5 mM EDTA, 0.005% Tween-20, 1 mg/mL CM Dextran, 0.02% w/v sodium azide) was assayed on a Biacore X100 using the Biacore Biotin CAPture Kit (GE Healthcare) and biotinylated beta-catenin. Results were analyzed using the Biacore X100 Evaluation Software. […] FPO217c (Isomer 2) bound to the armadillo domain of β-catenin with a Kd of 2 nM.

[3] = Solubility in DPBS (A280 of supernatant); type: physicochemical; details: DPBS
Procedure, shortened: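 Dried peptide reconstituted in DPBS in triplicate, vortexed, sonicated and centrifuged. Supernatant A280 measured; concentration calculated using the tryptophan extinction coefficient.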

[4] = Plasma PK in rats; type: in vivo; details: IV 0.5 mg/kg, male Sprague-Dawley rats
Protocol: (§1) FIG. 6. Exemplary pharmacokinetic properties. Peptides were formulated in 10% DMSO:90% saline and dosed by IV at 0.5 mg/kg per compound in three male Sprague-Dawley rats. Serial bleed time-points were taken at 2 min, 6 min, 10 min, 15 min, 30 min, 1, 2, 4, 6, 8, 12 and 24 h and analyzed by quantitative LC/MS using a Thermo Q-Exactive Focus LC/MS/MS. Samples were prepared by protein precipitation with MeOH. Data were fit to a two-compartment model.
as §1, with “Various technologies can be utilized to assess properties of provided agents, e.g., stapled peptides, in accordance with the present disclosure. In some embodiments, plasma PK methods are used to assess” for “FIG. 6. Exemplary”, “In an exemplary assay, peptides” for “Peptides”, “model. […] Exemplary data are presented, e.g., in FIG. 6.” for “model.”

[5] = biological target: T3, beta-catenin (Homo sapiens, UniProt P35222); details: reported in Grossmann et al.; cited from earlier work
T3 sequence (P35222 1-781): T1 sequence (P35222 1-781)

[6] = biological target: T4, full-length beta-catenin (UniProt P35222 2-781, limits assumed); assay: competition FP, grade of FP EC50 (+++: <=100 nM)
T4 construct: mature; also called full-length ß-Catenin; β-catenin
T4 sequence (looked up): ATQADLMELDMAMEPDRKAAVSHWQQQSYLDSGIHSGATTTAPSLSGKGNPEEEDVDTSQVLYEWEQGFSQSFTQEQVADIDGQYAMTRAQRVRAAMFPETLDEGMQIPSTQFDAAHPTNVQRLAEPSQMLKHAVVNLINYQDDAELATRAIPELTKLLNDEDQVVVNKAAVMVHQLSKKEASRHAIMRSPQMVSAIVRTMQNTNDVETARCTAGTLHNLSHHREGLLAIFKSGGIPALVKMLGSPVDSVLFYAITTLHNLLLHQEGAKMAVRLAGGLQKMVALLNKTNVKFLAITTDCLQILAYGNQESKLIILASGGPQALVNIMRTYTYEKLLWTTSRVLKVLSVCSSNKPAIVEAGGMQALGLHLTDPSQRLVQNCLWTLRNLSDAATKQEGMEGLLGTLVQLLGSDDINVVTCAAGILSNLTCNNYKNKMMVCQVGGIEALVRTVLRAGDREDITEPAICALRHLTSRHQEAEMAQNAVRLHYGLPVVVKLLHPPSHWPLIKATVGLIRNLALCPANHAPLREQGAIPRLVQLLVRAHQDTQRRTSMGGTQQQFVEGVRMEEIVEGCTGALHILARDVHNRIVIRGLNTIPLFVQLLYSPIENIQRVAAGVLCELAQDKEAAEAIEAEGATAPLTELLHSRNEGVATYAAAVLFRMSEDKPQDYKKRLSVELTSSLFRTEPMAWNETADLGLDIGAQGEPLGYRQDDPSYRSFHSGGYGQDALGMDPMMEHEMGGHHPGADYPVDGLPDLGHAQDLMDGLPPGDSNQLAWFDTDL
Procedure, shortened: (§2)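 Compound 3-fold serially diluted from 5 µM in Tris pH 8.0, 250 mM NaCl buffer, added to premixed 15 nM full-length β-catenin and 20 nM FITC-labelled stapled axin-site peptide probe. Incubated 15 min in the dark, polarization read in duplicate.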

[7] = biological target: T4, full-length beta-catenin; assay: competition FP, displacement of a labeled probe from the axin site
Protocol: In some embodiments, a competition fluorescence polarization assay is used to assess binding of provided compounds to beta-catenin. In an exemplary procedure, solutions of provided compounds, e.g., provided stapled peptides, were prepared in a buffer (e.g., 50 mM Tris pH 8.0, 250 mM NaCl, 2% glycerol, 0.5 mM EDTA, 0.02% w/v sodium azide) using a 3-fold serial dilution from 5 µM. Probe solution (15 nM full-length ß-Catenin, 20 nM FITC labeled peptide in buffer) was prepared and incubated for a period of time, e.g., 5 minutes, and the a volume, e.g., 40 µL per well plated in suitable plate, e.g., a black polystyrene 384-well plate (Corning). Equal volume of the serial diluted peptide was added to the plate and incubated protected from light for 15 minutes prior to read. Reads were performed on a Spectramax M5 (Molecular Devices) in duplicate. Suitable probe was FITC-PEG1-PQ-S5-ILD-S5-HVRRVWR (SEQ ID NO: 1) (hydrocarbon staple formed by two S5 via olefin metathesis) and/or FITC-bA-PQ-S5-ILD-S5-HVRRVWR (SEQ ID NO: 3) (hydrocarbon staple formed by two S5 via olefin metathesis). […] Another peptide, FPO217c (Ac-AR_8ILDAHIM$B5$RVW (SEQ ID NO: 280), with N-terminal proline removed and valine replaced with isoleucine compared to FP0025c) was prepared.

[8] = biological target: T4, full-length beta-catenin; assay: competition FP; control of Table 5
[9] = biological target: T4, full-length beta-catenin; assay: competition FP, grade of FP EC50 (++: 100-500 nM)
Procedure, shortened: as §2

[10] = Biacore, biotinylated beta-catenin, read-out: Kd
[11] = Table 3 Part A, read-out: Binding Kd
[12] = Table 3 Part A, read-out: Solubility in DPBS

## CC[C@H](C)[C@@H]1NC(=O)[C@H](Cc2c[nH]cn2)NC(=O)[C@H](C)NC(=O)[C@H](CC(=O)O)NC(=O)[C@H](CC(C)C)NC(=O)[C@H]([C@@H](C)CC)NC(=O)[C@](C)(NC(=O)[C@H](C)NC(C)=O)CCN(C)C(=O)OCC=CCOC(=O)N2CC[C@@](C(=O)N[C@@H](CCCNC(=N)N)C(=O)N[C@H](C(=O)N[C@@H](Cc3c[nH]c4ccccc34)C(N)=O)C(C)C)(C2)NC1=O [FP0597c, Ac-A-MG-I-L-D-A-H-I-MB-R-V-W-NH2] (Ac-A[dαMeDab(Me)]ILDAHI[X1]RVW-NH2; linker 2-9 via X2)
[1]
  EC50: < 100 nM
[2]; [10]
  Kd: 7 nM
[2]; Table 2, read-out: Kd by SPR
  Kd: 4 nM
[2]; [11]
  Kd: 4 nM
[3]; Table 2, read-out: Solubility
  solubility: 98 µM (≈ 158 µg/mL)
[3]; [12]
  solubility thermodynamic: 98 µM (≈ 158 µg/mL)
[3]; read-out: solubility
  solubility: 98 µM (≈ 158 µg/mL)
[4]
  plasma half-life compared with FP0217c (Isomer 2): shorter

## CC[C@H](C)[C@@H]1NC(=O)[C@H](Cc2c[nH]cn2)NC(=O)[C@H](C)NC(=O)[C@H](CC(=O)O)NC(=O)[C@H](CC(C)C)NC(=O)[C@H]([C@@H](C)CC)NC(=O)[C@](C)(NC(=O)[C@H](C)NC(C)=O)CCCCCCC=CCOC(=O)N2CC[C@@](C(=O)N[C@@H](CCCNC(=N)N)C(=O)N[C@H](C(=O)N[C@@H](Cc3c[nH]c4ccccc34)C(N)=O)C(C)C)(C2)NC1=O (single isomer, unassigned) [FPO217c Isomer 2, Ac-AR8ILDAHIMBRVW (SEQ ID NO: 280)]
[1]
  EC50: < 100 nM
[2]; [10]
  Kd: 2 nM
[2]; [11]
  Kd: 4 nM
[3]; Table 2, read-out: Solubility
  solubility: 7 µM (≈ 11.1 µg/mL)
[3]; [12]
  solubility: 12 µM (≈ 19 µg/mL)
[4]; rat, plasma
  half-life: > 1 h

## Ac-PEG1-RRWPRS5ILDS5HVRRVWR (SEQ ID NO: 278) ({Ac-PEG1′}-RRWPR[S5]ILD[S5]HVRRVWR; staple 6-10) [StAx-35R, "3 amino acids were added to the N-terminus of the peptide and one other Q→R mutation was made ... the resulting peptide StAx-35R"]
[5]
  affinity compared to StAx-33: reduced

## Ac-PA[R8]ILDAHV[MB]RVW-NH2 (staple 3-10) [FP0025c]
[6]
  FP EC50: ≤ 100 nM
[7]
  EC50: < 100 nM

B1: FP0787s (peptide)
peptide: Ac-PQ[S5]ILD[S5]HVRRVWR-NH2
modifications: staple 3-7
SMILES: CC[C@H](C)[C@@H]1NC(=O)[C@@](C)(NC(=O)[C@H](CCC(N)=O)NC(=O)[C@@H]2CCCN2C(C)=O)CCCC=CCCC[C@@](C)(C(=O)N[C@@H](Cc2c[nH]cn2)C(=O)N[C@H](C(=O)N[C@@H](CCCNC(=N)N)C(=O)N[C@@H](CCCNC(=N)N)C(=O)N[C@H](C(=O)N[C@@H](Cc2c[nH]c3ccccc23)C(=O)N[C@@H](CCCNC(=N)N)C(N)=O)C(C)C)C(C)C)NC(=O)[C@H](CC(=O)O)NC(=O)[C@H](CC(C)C)NC1=O
notes: also called S5/S5
[8]
  EC50: ~100 nM
[9]
  FP EC50: 100 to 500 nM
